This is an account of results in PMC9907720 (Antiviral research, 2022).

In data set [1] the test system is CMV IE1 protein. The data set is described as follows: Western blot of IE1 protein in AD169^R-infected NHDFs. It counts as cell-based, Human cytomegalovirus. Particulars: AD169^R-infected NHDF, 24hpi; MBX-4992 1-10 μM, ganciclovir 5 μM, convallotoxin 0.01 μM. For orientation: In western blotting, separated proteins are transferred to a membrane and probed.
Data set [2] concerns AD169^R. The data set can be described thus: Infectivity assay, AD169^R infection of ARPE-19. It counts as cell-based, Human cytomegalovirus. The conditions noted are these: AD169^R-infected ARPE-19, 24hpi.
Data set [3] deals with TB40/E. The data set can be described thus: Infectivity assay, TB40/E infection of ARPE-19. The class given is cell-based, Human cytomegalovirus. Particulars: TB40/E-infected ARPE-19, 24hpi.
The subject of data set [4] is TB40/E. The data set can be described thus: Infectivity assay, TB40/E infection of NHDF. The class given is cell-based, Human cytomegalovirus. The conditions noted are these: TB40/E-infected NHDF, 24hpi.
Data set [5] concerns AD169^IE2-YFP. The data set is described as follows: High-content screening / dose response assay, AD169^IE2-YFP infection of HFF. It counts as cell-based, Human cytomegalovirus. Particulars: read-out: anti-CMV activity IC50, secondary validation assays.
In data set [6] the test system is AD169^R. The data set is described as follows: Infectivity assay, AD169^R infection of NHDF. Particulars: AD169^R-infected NHDF, 24hpi. It counts as cell-based, Human cytomegalovirus.
Data set [7] relates to AD169^R. The data set is described as follows: Cell pre-treatment wash / no wash infection assay. The class given is cell-based, Human cytomegalovirus. The conditions noted are these: cells pre-treated, AD169^R 30 mins at 4°C; MBX-4992 10μM, heparin 50μg/ml; 24hpi.
Data set [8] concerns HHV-6B Z29. The data set is described as follows: Herpes virus panel, HHV-6B qPCR. The class given is cell-based, Human herpes virus 6B. The conditions noted are these: HHV-6B Z29, MOLT-3, qPCR.
In data set [9] the test system is hepatitis B. The data set can be described thus: Other viral pathogens, hepatitis B. The class given is cell-based. The conditions noted are these: data not shown.
Data set [10] concerns MOLT-3. The conditions noted are these: MOLT-3, HHV-6B assay.
In data set [11] the test system is AD169^R. The data set is described as follows: Virus pre-incubation wash / no wash infection assay. It counts as cell-based, Human cytomegalovirus. The conditions noted are these: MBX-4992 pre-incubated with virus, 24hpi.
Data set [12] deals with EBV Akata. The data set can be described thus: Herpes virus panel, EBV qPCR. The class given is cell-based, Epstein-Barr virus. Particulars: Akata cells.
For data set [13], the system named is Akata. Particulars: Akata cells, EBV assay.
For data set [14], the system named is Zika virus. The data set is described as follows: Other viral pathogens, Zika virus. The class given is cell-based. Particulars: data not shown.
Data set [15] concerns GP Lung. The conditions noted are these: GP Lung cells, GpCMV assay.
The test system of data set [16] is MCMV Smith. The data set can be described thus: Herpes virus panel, MCMV qPCR. The class given is cell-based, Murine cytomegalovirus. Particulars: MEF. A general note: Quantitative PCR measures a nucleic acid by following its amplification.
The test system of data set [17] is HFF.
Data set [18] concerns MEF. Particulars: MCMV assay.
The subject of data set [19] is respiratory syncytial. The data set is described as follows: Other viral pathogens, respiratory syncytial virus. The class given is cell-based. The conditions noted are these: data not shown.
The test system of data set [20] is AD169^R and TB40/E strains. The data set can be described thus: Infectivity assay, AD169^R and TB40/E in NHDF and ARPE-19. The class given is cell-based, Human cytomegalovirus. Particulars: read-out: IC50 values (range), NHDF and ARPE-19 cells, 24hpi.
In data set [21] the test system is HSV-2 G. The data set is described as follows: Herpes virus panel, HSV-2 CPE. It counts as cell-based, Herpes simplex virus 2. Particulars: HFF.
Data set [22] concerns BCBL-1. Particulars: BCBL-1 cells, HHV-8 assay.
For data set [23], the system named is HCMV AD169. The data set is described as follows: Herpes virus panel, HCMV AD169 CPE. It counts as cell-based, Human cytomegalovirus. The conditions noted are these: HCMV AD169, HFF.
Data set [24] concerns HCMV GDGr K17 (GCV^R). It counts as cell-based, Human cytomegalovirus. The conditions noted are these: HFF, CPE.
Data set [25] concerns yellow fever. It counts as cell-based.
Data set [26] deals with VZV Ellen. The data set is described as follows: Herpes virus panel, VZV CPE. The class given is cell-based, Varicella-Zoster virus. The conditions noted are these: HFF.
The subject of data set [27] is dengue. The data set can be described thus: Other viral pathogens, dengue. It counts as cell-based. Particulars: data not shown.
Data set [28] relates to HHV-8 BCBL-1. The data set can be described thus: Herpes virus panel, HHV-8 qPCR. It counts as cell-based, Human herpes virus 8. The conditions noted are these: HHV-8 BCBL-1, BCBL-1 cells.
The test system of data set [29] is HSV-1 E-377. The data set is described as follows: Herpes virus panel, HSV-1 CPE. The class given is cell-based, Herpes simplex virus 1. The conditions noted are these: HSV-1 E-377, HFF.
Data set [30] concerns influenza A H1N1. The data set is described as follows: Other viral pathogens, influenza A H1N1. Particulars: data not shown. It counts as cell-based.
The test system of data set [31] is GpCMV 22122. The data set is described as follows: Herpes virus panel, GpCMV qPCR. It counts as cell-based, Guinea pig cytomegalovirus. Particulars: GpCMV 22122, GP Lung cells.

pIC50: −log10 of the molar value. Like-named read-outs stand apart in the source and are kept apart here.

As to `Nc1nc(O)c2ncn(COC(CO)CO)c2n1` [GCV, ganciclovir], the “IE1 expression (Western blot)” value in data set [1] is reported as “did not impact IE1 expression”.

`Cc1nc(Nc2ccc(NC(=O)c3ccco3)cc2)cc(-n2cccn2)n1` [MBXC-4302]: the pIC50 was 5.24 in data set [2]; around 5.35 in data set [3]; around 5.35 in [4]; 5.49 in data set [5]; 5.52 in [6].

With heparin [reference compound], the “virus infection, compound present during infection” value in data set [7] is recorded as “significantly inhibited virus during infection”.

As to `C[C@@H]1O[C@@H](O[C@H]2CC[C@]3(C=O)[C@H]4CC[C@]5(C)[C@@H](C6=CC(=O)OC6)CC[C@]5(O)[C@@H]4CC[C@]3(O)C2)[C@H](O)[C@H](O)[C@H]1O` [convallatoxin], the “IE1 expression (Western blot)” value in [1] was “inhibited IE1 expression”.

With `Cc1nc(Nc2ccc(NC(=O)c3ccco3)cc2)cc(N2CCCC2)n1` [MBX-4992], the pIC50 was 4.36 in [8]; 4.51 in data set [12]; 5.35 in data set [16]; 5.32 to 5.72 in [20]; below 3.82 in [21]; 5.77 in [23]. The pIC50 in [24] is 5.74; in data set [26] it was below 4.52; in data set [28], 5.00; in data set [29], below 4.52; in [31], below 4.52. Also, the antiviral activity entry in data set [9], in data set [14], in data set [19], in data set [25], in data set [27] and in [30] was “did not exhibit activity” throughout. The CC50 was above 100 µM in [10]; above 100 µM in data set [13]; 119 µM in [15]; above 150 µM in data set [17] (HCMV AD169 assay); 60.6 µM in [17] (HSV-1 assay); above 150 µM in [17] (HSV-2 assay). The CC50 is 139 µM in [17] (VZV assay), above 150 µM in [18] and above 100 µM in data set [22]. Moreover, the “decrease of virus infection, virus pre-incubated then washed” value in data set [11] is on record as ~ 25%. For the same compound, the “virus infection, compound present during infection” value in [7] is recorded as “significantly inhibited virus during infection”. Besides, the “IE1 expression (Western blot)” value in data set [1] is “decrease in IE1 expression”.

By pIC50 is commonly meant the IC50 on a negative log10 scale, so that one unit is a factor of ten.
